Some test systems named below: HCT-15; BT-549; DU-145; SF-268; OVCAR-4; KM12; SK-MEL-5; HOP-92; MDA-MB-435; HCT-116; UACC-62; SF-295; MDA-N; HCC 2998; T47D; SNB-75; UACC-257; RPMI-8226; SK-MEL-2.
Common to all, as to assay: NCI tumour cell line growth inhibition, 48 h

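Five concentrations, 48 hours, 96-well plates. GI50 marks 50% less growth.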 Calls of active or inactive are those of the source. No stated cut-off is given here; in the data, active = GI50 up to about 1.1 µM and inactive = higher.

Turning to `O=C1CSC2=NCC3(NN12)c1ccccc1-c1ccccc13`, the GI50 in the test with HCT-15 is over 10 µM; in the test with BT-549, > 10 µM (inactive); in the test with DU-145, > 10 µM (inactive); with SF-268, > 10 µM (inactive); with OVCAR-4, > 10 µM (inactive); in the test on KM12, > 10 µM (inactive). The GI50 with SK-MEL-5, with HOP-92, in the test on MDA-MB-435, in the test with HCT-116, in the test on UACC-62 and in the test with SF-295 was > 10 µM (inactive) in each case. Moreover, the GI50 in the test on MDA-N, in the test with HCC 2998, with T47D, in the test with SNB-75, with UACC-257 and in the test with RPMI-8226 was > 10 µM (inactive) in each case.

`Cc1nc(SCC(=O)Nc2ccccc2)c2sc(=S)n(-c3ccccc3)c2n1`: the GI50 is over 10 µM in the test on HCT-15; > 10 µM (inactive) in the test with BT-549; > 10 µM (inactive) in the test with DU-145; > 10 µM (inactive) in the test on SF-268; 5.62 µM (inactive) with OVCAR-4; > 10 µM (inactive) with KM12. For the same molecule, the GI50 with SK-MEL-5, with HOP-92, in the test with MDA-MB-435, with HCT-116, in the test on UACC-62 and in the test on SF-295 was > 10 µM (inactive) each time. The GI50 in the test on MDA-N is > 10 µM (inactive); in the test on HCC 2998, > 10 µM (inactive); with T47D it was > 10 µM (inactive); in the test with SNB-75, 3.19 µM (inactive); in the test on UACC-257, > 10 µM (inactive); in the test with SK-MEL-2 it was > 10 µM (inactive). In the test on RPMI-8226, the GI50 is > 10 µM (inactive).

Turning to `CC1=C(C)C(=O)OC(C(C)(O)C2(O)CCC3(O)C4CC(Cl)C5(O)C(O)C=CC(=O)C5(C)C4CCC32C)C1` (stereo not drawn), the GI50 in the test with HCT-15 is 28.7 µM; in the test with BT-549 it was 46.3 µM (inactive); in the test on DU-145, > 100 µM (inactive); with SF-268, 48.1 µM (inactive); in the test with OVCAR-4, 57.4 µM (inactive); in the test on KM12, 25.6 µM (inactive). In addition, the GI50 with HOP-92 was > 100 µM (inactive); in the test with MDA-MB-435, 18.7 µM (inactive); in the test on HCT-116, 19.1 µM (inactive); with UACC-62, 9.1 µM (inactive); in the test with SF-295, 30.3 µM (inactive); with MDA-N, 20 µM (inactive). The GI50 in the test on HCC 2998 was 27.1 µM (inactive); with T47D, > 100 µM (inactive); in the test on SNB-75, 4.25 µM (inactive); with UACC-257, 37.2 µM (inactive); with SK-MEL-2, > 100 µM (inactive); with RPMI-8226, 8.99 µM (inactive).

Regarding `COc1cc(/C=C2\CC3C4CC=C5C[C@@H](O)CC[C@]5(C)C4CC[C@]3(C)\C2=N\O)cc(OC)c1OC` (stereo partly drawn), the GI50 in the test with HCT-15 was 3.88 µM; with BT-549, 7 µM (inactive); in the test with DU-145, 12.9 µM (inactive); with SF-268 it was 8.02 µM (inactive); in the test with OVCAR-4, 3.94 µM (inactive); in the test with KM12, 2.54 µM (inactive). Besides, the GI50 in the test on SK-MEL-5 is 4.4 µM (inactive); in the test with HOP-92, 14.3 µM (inactive); with MDA-MB-435 it was 5.12 µM (inactive); in the test on HCT-116 it was 4.05 µM (inactive); in the test with UACC-62 it was 9.06 µM (inactive); in the test with SF-295 it was 3.02 µM (inactive). Further, the GI50 with MDA-N is 6.37 µM (inactive); in the test on HCC 2998, 6.34 µM (inactive); in the test with T47D it was 2.72 µM (inactive); with SNB-75, 9.2 µM (inactive); in the test with UACC-257, 9.91 µM (inactive); in the test on SK-MEL-2, 4.07 µM (inactive). For the same molecule, the GI50 with RPMI-8226 is 10.4 µM (inactive).

As for `COc1ccc(-c2cc(-c3ccccc3)[nH]c(=S)c2C#N)cc1`, the GI50 is 34.7 µM in the test with HCT-15; 39.6 µM (inactive) in the test on BT-549; 52.2 µM (inactive) with DU-145; 38.2 µM (inactive) in the test on SF-268; 38.6 µM (inactive) in the test with OVCAR-4; 45.4 µM (inactive) with KM12. Further, the GI50 in the test with SK-MEL-5 is 16 µM (inactive); in the test with HOP-92, 44.3 µM (inactive); in the test on MDA-MB-435 it was 20.1 µM (inactive); in the test on HCT-116, 34.9 µM (inactive); in the test with UACC-62, 19 µM (inactive); in the test with SF-295, 27.4 µM (inactive). The GI50 in the test on MDA-N is 31.1 µM (inactive); in the test with HCC 2998, 28.2 µM (inactive); in the test on T47D, 8.63 µM (inactive); in the test with SNB-75, 31 µM (inactive); in the test on RPMI-8226 it was 20.7 µM (inactive).

On to `CSc1ccc(C=C2N=C(c3ccccc3)N(c3cc(C(=O)c4ccccc4)ccc3N3C(=O)/C(=C/c4ccc(SC)cc4)N=C3c3ccccc3)C2=O)cc1`, for which the GI50 is 61.4 µM in the test on HCT-15; 45.6 µM (inactive) with BT-549; 49.9 µM (inactive) in the test with DU-145; 53.2 µM (inactive) in the test on SF-268; 40 µM (inactive) with OVCAR-4; 40 µM (inactive) with KM12. For the same molecule, the GI50 in the test on SK-MEL-5 was 37.6 µM (inactive); with HOP-92, 80.7 µM (inactive); in the test with MDA-MB-435, 31.8 µM (inactive); with HCT-116, 59.3 µM (inactive); in the test on UACC-62, 44.9 µM (inactive); in the test with SF-295, 44.1 µM (inactive). Moreover, the GI50 in the test with MDA-N was 93.1 µM (inactive); in the test on HCC 2998 it was 46 µM (inactive); with T47D, 34.5 µM (inactive); in the test on SNB-75, 16 µM (inactive); with UACC-257, 89.9 µM (inactive); with SK-MEL-2 it was 36.1 µM (inactive). Besides, the GI50 in the test on RPMI-8226 is 25.4 µM (inactive).

Turning to `Cc1ccc2c(c1)C(=O)C(C1OC(=O)c3ccccc31)C2` (stereo not drawn), the GI50 was 42.8 µM with HCT-15; > 100 µM (inactive) with BT-549; > 100 µM (inactive) in the test with DU-145; > 100 µM (inactive) with SF-268; > 100 µM (inactive) in the test on OVCAR-4; > 100 µM (inactive) with KM12. Further, the GI50 in the test on SK-MEL-5 was 65.3 µM (inactive); in the test on HOP-92, > 100 µM (inactive); in the test on MDA-MB-435, > 100 µM (inactive); in the test with HCT-116, 70.3 µM (inactive); in the test on UACC-62, 96.2 µM (inactive); in the test on SF-295, > 100 µM (inactive). Moreover, the GI50 in the test with MDA-N was > 100 µM (inactive); with HCC 2998, > 100 µM (inactive); with T47D it was 76.9 µM (inactive); with SNB-75, > 100 µM (inactive); in the test on UACC-257 it was > 100 µM (inactive); with SK-MEL-2 it was > 100 µM (inactive). In the test on RPMI-8226, the GI50 is 45.8 µM (inactive).

On to `COc1ccc(-c2nc(N)c(C#N)c3c2CCS(=O)(=O)c2ccc(C)cc2-3)cc1OC`, for which the GI50 was 16.1 µM with HCT-15; 21.8 µM (inactive) in the test with BT-549; 29 µM (inactive) with DU-145; 51.2 µM (inactive) in the test on SF-268; 25.8 µM (inactive) with OVCAR-4; 19.4 µM (inactive) in the test on KM12. Further, the GI50 in the test on SK-MEL-5 was 20.7 µM (inactive); with HOP-92, 38.5 µM (inactive); with MDA-MB-435, 15.1 µM (inactive); in the test with HCT-116, 31.5 µM (inactive); in the test with UACC-62, 15.2 µM (inactive); in the test with MDA-N, 11.7 µM (inactive). In addition, the GI50 was 27.6 µM (inactive) in the test with HCC 2998; 39.1 µM (inactive) in the test on T47D; 23.7 µM (inactive) in the test with SNB-75; 22.6 µM (inactive) in the test with UACC-257; 16.2 µM (inactive) in the test with SK-MEL-2.

With `COc1cccc2cc(C(=O)Nc3ccccn3)c(=N)oc12`, the GI50 in the test with HCT-15 is over 100 µM; in the test with BT-549 it was 78.2 µM (inactive); in the test with DU-145, 54.8 µM (inactive); in the test with SF-268, 64.1 µM (inactive); in the test on OVCAR-4, > 100 µM (inactive); in the test with KM12 it was 99.3 µM (inactive). Also, the GI50 with SK-MEL-5 was > 100 µM (inactive); in the test with HOP-92 it was > 100 µM (inactive); in the test with MDA-MB-435 it was 63.4 µM (inactive); in the test on HCT-116, 83.2 µM (inactive); in the test on UACC-62, 64.4 µM (inactive); in the test on SF-295, > 100 µM (inactive). Also, the GI50 in the test on MDA-N was 82.2 µM (inactive); in the test on HCC 2998, > 100 µM (inactive); in the test on T47D, 33 µM (inactive); with SNB-75, 59.2 µM (inactive); with UACC-257, > 100 µM (inactive); in the test with SK-MEL-2 it was 33.6 µM (inactive). For the same molecule, in the test on RPMI-8226, the GI50 is 75.7 µM (inactive).

On to `CC(OCc1ccccc1)C(NC(=O)C1CSSCC(NC(=O)C(Cc2ccccc2)NC(=O)OCc2ccccc2)C(=O)NC(Cc2ccccc2)C(=O)NC(Cc2cn(C=O)c3ccccc23)C(=O)NC(CCCCNC(=O)OCc2ccccc2)C(=O)NC(C(C)OCc2ccccc2)C(=O)N1)C(N)=O` (stereo not drawn), for which the GI50 in the test on HCT-15 is 32 µM; with BT-549, 21.2 µM (inactive); in the test with DU-145 it was 30.5 µM (inactive); in the test on SF-268, > 61.8 µM (inactive); with OVCAR-4 it was > 43.5 µM (inactive); in the test on KM12, 3.91 µM (inactive). The GI50 with SK-MEL-5 was 24.5 µM (inactive); in the test with HOP-92, 38.3 µM (inactive); in the test on MDA-MB-435, 37.9 µM (inactive); in the test with HCT-116, 17.7 µM (inactive); in the test on UACC-62, 72.6 µM (inactive); with SF-295, > 85.7 µM (inactive). Further, the GI50 in the test with MDA-N is 24.2 µM (inactive); in the test with HCC 2998 it was 7.43 µM (inactive); in the test with T47D, 13.3 µM (inactive); in the test with SNB-75, 22.1 µM (inactive); with UACC-257, 44 µM (inactive); in the test on SK-MEL-2, 13.1 µM (inactive). In the test with RPMI-8226, the GI50 was 5.04 µM (inactive).

Consider `Cc1ccc(/N=N\c2c(O)ccc3cc(S(=O)(=O)O)ccc23)cc1`, for which the GI50 with HCT-15 is over 100 µM; in the test on BT-549 it was > 100 µM (inactive); in the test with DU-145, > 100 µM (inactive); in the test on SF-268, > 100 µM (inactive); in the test with OVCAR-4, > 100 µM (inactive); in the test with KM12 it was > 100 µM (inactive). Moreover, the GI50 in the test on SK-MEL-5, in the test on HOP-92, with MDA-MB-435, in the test on HCT-116, in the test with UACC-62 and with SF-295 was > 100 µM (inactive) in each case. The GI50 in the test on MDA-N, in the test with HCC 2998, in the test on T47D, in the test on SNB-75, in the test with UACC-257 and with SK-MEL-2 was > 100 µM (inactive) in each case. Further, in the test on RPMI-8226, the GI50 was > 100 µM (inactive).
